Legend:
Assay in all cases: NCI 60 cell line single dose screen (SRB)
Format in all cases: cell-based
SNB-75 = settings: Homo sapiens; SNB-75 (CNS cancer), single dose 10^−5 M, 48 h; read-out: Growth inhibition percentage
Procedure: (§1) Anticancer activity screening of the newly synthesised compounds was measured in vitro utilising 60 different human tumour cell lines provided by US National Cancer Institute according to previously reported standard procedure[27–29] as follows: Cells are inoculated into 96-well microtitre plates in 100 ml. After cell inoculation, the microtitre plates are incubated at 37 °C, 5% CO2, 95% air and 100% relative humidity for 24 h prior to addition of experimental compounds. After 24 h, two plates of each cell line are fixed in situ with TCA, to represent a measurement of the cell population for each cell line at the time of drug addition (Tz). Experimental compounds are solubilised in dimethyl sulphoxide at 400-fold the desired final maximum test concentration and stored frozen prior to use. At the time of compound addition, an aliquot of frozen concentrate is thawed and diluted to twice the desired final maximum test concentration with complete medium containing […] gentamicin. Aliquots of […] of the compounds dilutions are added to the appropriate microtitre wells already containing 100 ml of medium, resulting in the required final compound concentration. Following compound addition, the plates are incubated for an additional 48 h at 37 °C, 5% CO2, 95% air, and 100% relative humidity. For adherent cells, the assay is terminated by the addition of cold trichloroacetic acid (TCA). Cells are fixed in situ by the gentle addition of 50 ml of cold 50% (w/v) TCA (final concentration, 10% TCA) and incubated for 60 min at 4 °C. The supernatant is discarded, and the plates are washed five times with tap water and air-dried. Sulphorhodamine B (SRB) solution (100 ml) at 0.4% (w/v) in 1% acetic acid is added to each well, and plates are incubated for 10 min at room temperature. After staining, unbound dye is removed by washing five times with 1% acetic acid and the plates are air-dried. Bound stain is subsequently solubilised with 10 mM trizma base, and the absorbance is read on an automated plate reader at a wavelength of 515 nm. For suspension cells, the methodology is the same except that the assay is terminated by fixing settled cells at the bottom of the wells by gently adding 50 ml of 80% TCA (final concentration, 16% TCA). Using the absorbance measurements [time zero, (Tz), control growth, (C), and test growth in the presence of compound (Ti)], the percentage growth is calculated for each compound. Percentage growth inhibition is calculated as: [(Ti – Tz)/(C – Tz)] x 100 for concentrations for which Ti >/=Tz. [(Ti – Tz)/Tz] x 100 for concentrations for which Ti < Tz.

MCF7 = settings: Homo sapiens; MCF7 (breast cancer), single dose 10^−5 M, 48 h; read-out: Growth inhibition percentage
Procedure: as §1

OVCAR-3 = settings: Homo sapiens; OVCAR-3 (ovarian cancer), single dose 10^−5 M, 48 h; read-out: Growth inhibition percentage
Procedure: as §1

HCC-2998 = settings: Homo sapiens; HCC-2998 (colon cancer), single dose 10^−5 M, 48 h; read-out: Growth inhibition percentage
Procedure: as §1

SNB-19 = settings: Homo sapiens; SNB-19 (CNS cancer), single dose 10^−5 M, 48 h; read-out: Growth inhibition percentage
Procedure: as §1

OVCAR-4 = settings: Homo sapiens; OVCAR-4 (ovarian cancer), single dose 10^−5 M, 48 h; read-out: Growth inhibition percentage
Procedure: as §1

UO-31 = settings: Homo sapiens; UO-31 (renal cancer), single dose 10^−5 M, 48 h; read-out: Growth inhibition percentage
Procedure: as §1

SN12C = settings: Homo sapiens; SN12C (renal cancer), single dose 10^−5 M, 48 h; read-out: Growth inhibition percentage
Procedure: as §1

NCI-H460 = settings: Homo sapiens; NCI-H460 (non-small cell lung cancer), single dose 10^−5 M, 48 h; read-out: Growth inhibition percentage
Procedure: as §1

KM12 = settings: Homo sapiens; KM12 (colon cancer), single dose 10^−5 M, 48 h; read-out: Growth inhibition percentage
Procedure: as §1

MDA-MB-435 = settings: Homo sapiens; MDA-MB-435 (melanoma), single dose 10^−5 M, 48 h; read-out: Growth inhibition percentage
Procedure: as §1

T-47D = settings: Homo sapiens, T47D; T-47D (breast cancer), single dose 10^−5 M, 48 h; read-out: Growth inhibition percentage
Procedure: as §1

SF-295 = settings: Homo sapiens; SF-295 (CNS cancer), single dose 10^−5 M, 48 h; read-out: Growth inhibition percentage
Procedure: as §1

SF-268 = settings: Homo sapiens; SF-268 (CNS cancer), single dose 10^−5 M, 48 h; read-out: Growth inhibition percentage
Procedure: as §1

NCI-H322M = settings: Homo sapiens; NCI-H322M (non-small cell lung cancer), single dose 10^−5 M, 48 h; read-out: Growth inhibition percentage
Procedure: as §1

SK-MEL-5 = settings: Homo sapiens; SK-MEL-5 (melanoma), single dose 10^−5 M, 48 h; read-out: Growth inhibition percentage
Procedure: as §1

MDA-MB-468 = settings: Homo sapiens; MDA-MB-468 (breast cancer), single dose 10^−5 M, 48 h; read-out: Growth inhibition percentage
Procedure: as §1

SF-593 = settings: Homo sapiens, SF-593 (CNS cancer), single dose 10^−5 M, 48 h, read-out: Growth inhibition percentage
Procedure: as §1

IGROV1 = settings: Homo sapiens, IGROV-1; IGROV1 (ovarian cancer), single dose 10^−5 M, 48 h; read-out: Growth inhibition percentage
Procedure: as §1

OVCAR-5 = settings: Homo sapiens; OVCAR-5 (ovarian cancer), single dose 10^−5 M, 48 h; read-out: Growth inhibition percentage
Procedure: as §1

MOLT-4 = settings: Homo sapiens; MOLT-4 (leukemia), single dose 10^−5 M, 48 h; read-out: Growth inhibition percentage
Procedure: as §1

`Cc1nn(-c2ccc(F)cc2)c2ncnc(N3CCN(c4ccc(Cl)cc4)CC3)c12` [Compound 8c, 4–(4-(4-Chlorophenyl)piperazin-1-yl)-1–(4-fluorophenyl)-3-methyl-1H-pyrazolo[3,4-d]pyrimidine] was tested, and the inhibition at 10 µM (SNB-75) was 0.02%, the inhibition at 10 µM (MCF7) was 3.1% and the inhibition at 10 µM (OVCAR-3) was 1.21%. The inhibition at 10 µM (HCC-2998) was 3.74%, the inhibition at 10 µM (SNB-19) was -4.77% and the inhibition at 10 µM (OVCAR-4) was -1.9%. It also gave an inhibition at 10 µM (UO-31) of 34.9%, an inhibition at 10 µM (SN12C) of 13.3% and an inhibition at 10 µM (NCI-H460) of -4.35%. It also gave an inhibition at 10 µM (KM12) of 2.24%, an inhibition at 10 µM (MDA-MB-435) of -14.5% and an inhibition at 10 µM (T-47D) of 10.3%. It also gave an inhibition at 10 µM (SF-295) of -0.93%, an inhibition at 10 µM (SF-268) of 4.51% and an inhibition at 10 µM (NCI-H322M) of 3.9%. It also gave an inhibition at 10 µM (SK-MEL-5) of 5.22%, an inhibition at 10 µM (MDA-MB-468) of -3.83% and an inhibition at 10 µM (SF-593) of 3.89%. For the same compound, the inhibition at 10 µM (IGROV1) was 25.6%, the inhibition at 10 µM (OVCAR-5) was -2.91% and the inhibition at 10 µM (MOLT-4) was 7.19%.

`COc1ccc(N2CCN(c3ncnc4c3c(C)nn4-c3ccc(F)cc3)CC2)cc1` [Compound 8d, 1–(4-Fluorophenyl)-4–(4-(4-methoxyphenyl)piperazin-1-yl)-3-methyl-1H-pyrazolo[3,4-d]pyrimidine] gave an inhibition at 10 µM (SNB-75) of 5.93%, an inhibition at 10 µM (MCF7) of 1.6% and an inhibition at 10 µM (OVCAR-3) of -8.47%. It also gave an inhibition at 10 µM (HCC-2998) of 3.59%, an inhibition at 10 µM (SNB-19) of 2.02% and an inhibition at 10 µM (OVCAR-4) of -1.77%. It also gave an inhibition at 10 µM (UO-31) of 21.3%, an inhibition at 10 µM (SN12C) of 6.31% and an inhibition at 10 µM (NCI-H460) of -4.87%. For the same compound, the inhibition at 10 µM (KM12) was 0.4%, the inhibition at 10 µM (MDA-MB-435) was -6.1% and the inhibition at 10 µM (T-47D) was 3.85%. The inhibition at 10 µM (SF-295) was -2.4%, the inhibition at 10 µM (SF-268) was -2.9% and the inhibition at 10 µM (NCI-H322M) was 1.5%. For the same compound, the inhibition at 10 µM (SK-MEL-5) was -1.01%, the inhibition at 10 µM (MDA-MB-468) was 0.37% and the inhibition at 10 µM (SF-593) was 8.43%. The inhibition at 10 µM (IGROV1) was 9.45%, the inhibition at 10 µM (OVCAR-5) was -7.96% and the inhibition at 10 µM (MOLT-4) was 3.49%.

In the case of `Cc1nn(-c2ccc(F)cc2)c2ncnc(NN)c12` [Compound 9, 1–(4-Fluorophenyl)-4-hydrazinyl-3-methyl-1H-pyrazolo[3,4-d]-pyrimidine], the inhibition at 10 µM (SNB-75) is reported as -0.56%, the inhibition at 10 µM (MCF7) is reported as 11.5% and the inhibition at 10 µM (OVCAR-3) is reported as 32.2%. The inhibition at 10 µM (HCC-2998) was 5.1%, the inhibition at 10 µM (SNB-19) was 11.3% and the inhibition at 10 µM (OVCAR-4) was 17.8%. For the same compound, the inhibition at 10 µM (UO-31) was 28.7%, the inhibition at 10 µM (SN12C) was 8.3% and the inhibition at 10 µM (NCI-H460) was -11.7%. The inhibition at 10 µM (KM12) was 3.79%, the inhibition at 10 µM (MDA-MB-435) was -9.22% and the inhibition at 10 µM (T-47D) was 32%. The inhibition at 10 µM (SF-295) was -3.92%, the inhibition at 10 µM (SF-268) was 25.6% and the inhibition at 10 µM (NCI-H322M) was 23.9%. It also gave an inhibition at 10 µM (SK-MEL-5) of 3.85%, an inhibition at 10 µM (MDA-MB-468) of 18.5% and an inhibition at 10 µM (SF-593) of -0.7%. The inhibition at 10 µM (IGROV1) was 23.5%, the inhibition at 10 µM (OVCAR-5) was -7.64% and the inhibition at 10 µM (MOLT-4) was 22.7%.

`COc1cc(C=NNc2ncnc3c2c(C)nn3-c2ccc(F)cc2)ccc1O` [Compound 10b, 1–(4-Fluorophenyl)-4–(2-(4-hydroxy-3-methoxybenzylidene)-hydrazinyl)-3-methyl-1H-pyrazolo[3,4-d]pyrimidine] showed an inhibition at 10 µM (SNB-75) of 17.5%, an inhibition at 10 µM (MCF7) of 14.7% and an inhibition at 10 µM (OVCAR-3) of 24.2%. It also gave an inhibition at 10 µM (HCC-2998) of 0.27%, an inhibition at 10 µM (SNB-19) of 6.67% and an inhibition at 10 µM (OVCAR-4) of 9.65%. For the same compound, the inhibition at 10 µM (UO-31) was 35.6%, the inhibition at 10 µM (SN12C) was 14.9% and the inhibition at 10 µM (NCI-H460) was 11.9%. It also gave an inhibition at 10 µM (KM12) of 28.1%, an inhibition at 10 µM (MDA-MB-435) of 4.56% and an inhibition at 10 µM (T-47D) of 20.1%. For the same compound, the inhibition at 10 µM (SF-295) was -5.51%, the inhibition at 10 µM (SF-268) was 29% and the inhibition at 10 µM (NCI-H322M) was 14.4%. The inhibition at 10 µM (SK-MEL-5) was 43.4%, the inhibition at 10 µM (MDA-MB-468) was 8.05% and the inhibition at 10 µM (SF-593) was 3.85%. It also gave an inhibition at 10 µM (IGROV1) of 20.6%, an inhibition at 10 µM (OVCAR-5) of -30.9% and an inhibition at 10 µM (MOLT-4) of 38.3%.

With `COc1cc(C=NNc2ncnc3c2c(C)nn3-c2ccc(F)cc2)cc(OC)c1OC` [Compound 10c, 1–(4-Fluorophenyl)-3-methyl-4–(2-(3,4,5-trimethoxybenzylidene)-hydrazinyl)-1H-pyrazolo[3,4-d]pyrimidine] the inhibition at 10 µM (SNB-75) was 19.5%, the inhibition at 10 µM (MCF7) was 1.96% and the inhibition at 10 µM (OVCAR-3) was -0.3%. The inhibition at 10 µM (HCC-2998) was 2.74%, the inhibition at 10 µM (SNB-19) was -4.87% and the inhibition at 10 µM (OVCAR-4) was -8.66%. It also gave an inhibition at 10 µM (UO-31) of 31.1%, an inhibition at 10 µM (SN12C) of 4.99% and an inhibition at 10 µM (NCI-H460) of -3.23%. For the same compound, the inhibition at 10 µM (KM12) was 5.82%, the inhibition at 10 µM (MDA-MB-435) was -2.02% and the inhibition at 10 µM (T-47D) was 16.8%. For the same compound, the inhibition at 10 µM (SF-295) was -2.66%, the inhibition at 10 µM (SF-268) was 6.35% and the inhibition at 10 µM (NCI-H322M) was 13.5%. For the same compound, the inhibition at 10 µM (SK-MEL-5) was 15.3%, the inhibition at 10 µM (MDA-MB-468) was -4.81% and the inhibition at 10 µM (SF-593) was 13.2%. The inhibition at 10 µM (IGROV1) was 26.6%, the inhibition at 10 µM (OVCAR-5) was -11.4% and the inhibition at 10 µM (MOLT-4) was 7.03%.
